Reference: patent publication US20260224590A1 (priority 2023, published 2026)
Like-named read-outs stand apart in the source and are kept apart here.

What was measured:
[1] = molecular target: T1, 5-HT2A receptor (Homo sapiens, UniProt P28223); experiment: 5-HT2A receptor downstream β-arrestin2 recruitment in HEK-293T cells; assay type: cell-based; parameters: expressed in transfected cells; host or cells: HEK-293T (ATCC, CRL-11268); conditions: for β-arrestin2 signaling agonistic activity (% in parentheses): HEK-293T, percentage printed in parentheses beside the nM value, not defined; for signaling pathway selectivity at the 5-HT2A receptor (β-arrestin2 versus G protein): statement on Table 2
T1 sequence (P28223 whole entry): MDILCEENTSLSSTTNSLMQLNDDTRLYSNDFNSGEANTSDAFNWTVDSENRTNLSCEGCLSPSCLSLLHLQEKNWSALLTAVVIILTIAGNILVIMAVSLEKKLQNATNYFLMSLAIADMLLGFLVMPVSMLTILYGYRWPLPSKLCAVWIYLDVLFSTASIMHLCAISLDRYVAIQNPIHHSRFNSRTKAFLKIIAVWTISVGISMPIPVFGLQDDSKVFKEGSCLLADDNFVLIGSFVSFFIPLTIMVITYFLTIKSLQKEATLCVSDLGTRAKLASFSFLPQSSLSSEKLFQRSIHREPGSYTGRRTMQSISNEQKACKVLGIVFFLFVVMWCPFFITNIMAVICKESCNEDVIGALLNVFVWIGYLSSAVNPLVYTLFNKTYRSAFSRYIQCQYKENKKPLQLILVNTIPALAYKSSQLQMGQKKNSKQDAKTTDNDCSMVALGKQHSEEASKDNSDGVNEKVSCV
Experimental: (§1) On the second day, the confluent cells from a 6 cm culture dish were digested and reseeded into a 96-well plate at a volume of 100 μL of culture medium per well. On the third day, the drugs were added for testing. The 96-well plate was taken out from the cell incubator to decant the culture medium. 40 μL of the substrate coelenterazine 400a (final concentration 5 μM) was added to each well, and then 20 μL of different drugs were added sequentially from left to right, ensuring that the final concentration of the drug decreased gradually from bottom to top, with two replicates per treatment. Finally, the prepared samples were loaded on a plate reader for signal quantification. The readout values reflected the recruitment of β-arrestin2 to the membrane or the dissociation of G protein trimer. The former indicated the degree of activation of the downstream β-arrestin2 signaling pathway mediated by the 5-HT2A receptor, and the latter indicated the degree of activation of the downstream G protein signaling pathway mediated by the 5-HT2A receptor.

[2] = molecular target: T1, 5-HT2A receptor; experiment: radioligand competitive binding assay, affinity for the 5-HT2A receptor; conditions: [3H]-LSD competition, 293T membranes transiently expressing 5-HT2A receptor
[3] = tested on: C57BL/6 mice, corticosterone in drinking water; experiment: tail suspension test after 21 days of corticosterone exposure; assay type: in vivo; conditions: corticosterone model
Experimental: Antidepressant efficacy test method: Male C57BL/6 mice (8 weeks old, purchased from Shanghai Lingchang Biotech Co., Ltd.) were administered a solution of corticosterone in their drinking water at a concentration of 25 μg/mL using drinking water bottles for 21 days. Mice were maintained on a 12-hour light cycle. Corticosterone-containing drinking water was refreshed every other day for the first two weeks, and gradually replaced with corticosterone-free drinking water every two days for the last week. […] TST procedure: mice in the control group and the administration group were suspended by their tails with tape for 6 minutes, and their behavior was recorded by a video camera. The immobility time during the last 4 minutes was manually timed and assessed by an observer who was unaware of the treatment conditions.

[4] = tested on: C57BL/6J mice; experiment: head-twitch response in mice (hallucinogenic effects); assay type: in vivo; conditions: intraperitoneal injection, first 30 minutes, all doses tested
Description: Method: The head-twitch response in mice was detected via oscillatory signals to characterize hallucinogenic effects. Mice (strain C57BL/6J, purchased from Shanghai Lingchang Biotech Co., Ltd.) were anesthetized with 2% isoflurane. A small portion of the scalp was removed from the center of the dorsal cranium. A custom-made small neodymium magnet (4 mm×4 mm×2 mm) was attached to the center of the dorsal cranium using dental resin. The magnet N-S poles were kept parallel to the dorsoventral aspect of the implant. The mice were allowed to recover for 1 week before testing. To record precise head movements, the mice were placed in a glass beaker with a diameter of 12 cm, surrounded by 150 turns of #30 enameled copper wire. The output signal from the coil was recorded using a PowerLab/4SP instrument installed with LabChart V8.1.16 software. Coil voltage was amplified, low-pass filtered at 10 kHz to remove radio frequency interference, and sampled at 40 kHz. For the detection of head-twitch response in mice, LabChart data were processed with a digital band-pass filter at 40 to 200 Hz. The head-twitch response in mice was identified by searching for sinusoidal wavelets that met the following criteria: 1) containing more than two bipolar peaks; 2) amplitude exceeding background noise level; 3) duration less than 120 milliseconds. 1 hour prior to the test, the mice were transferred to the test room for acclimatization. Subsequently, the mice were placed in the beaker for 30 minutes, and baseline head-twitch response values were recorded. Immediately after baseline recording, the mice were injected intraperitoneally with the test compound, and head-twitch response values were recorded for 1 to 2 hours post-dose, depending on the compound used. Statistical values were taken from the first 30 minutes.

[5] = in vivo; conditions: male, C57, mouse, plasma, ip, 5 mg/kg
Experimental: (§3) The concentration of the compound in mouse plasma was determined using LC-MS/MS, and the relevant pharmacokinetic parameters were calculated to investigate the pharmacokinetic characteristics of the compound in mice.
(§4) Experimental design: 60 male C57 mice (purchased from Suzhou JOINN Laboratory Animal Co., Ltd.) were randomly divided into groups based on weight, with 3 mice per group. The mice were fasted with water ad libitum for 12 to 14 hours one day before test-article administration and fed 4 hours after the administration. The route of administration was intraperitoneal (IP), with a dosing concentration of 1 mg/mL, and a solvent formulation of 10% DMSO+90% saline.
(§5) Sample collection: 0.1 mL of blood was collected from the orbit under isoflurane anesthesia before and after test-article administration, transferred to EDTA K2 tubes, and placed on an ice bath. The samples were centrifuged at 5000 rpm for 10 minutes at 4° C., and the plasma was collected. […] Prior to analysis, all plasma samples were stored at −80° C.
(§6) Data processing: Drug concentrations in plasma and brain tissues were measured using LC-MS (API4000QTRAP triple quadrupole tandem mass spectrometer, equipped with an electrospray ionization source (ESI)). The data collection and control system software utilized was Analyst 1.5.1 (Applied Biosystems). The sample peak integration in the spectrum was conducted automatically; the ratio of the sample peak area to the internal standard peak area was used as an indicator to perform regression with the concentration of the sample. Regression method: Linear regression with a weighting factor of 1/X^2. Pharmacokinetic parameters were analyzed using a non-compartmental model in WinNonlin Professional v6.3 (Pharsight, USA). Cmax is the measured maximum plasma concentration, the area under the plasma concentration-time curve (AUC(0→t)) was calculated by the trapezoidal method, and Tmax is the time to reach peak plasma concentration after administration. Experimental data are presented as “Mean±Standard Deviation” (Mean±SD, n≥3) or “Mean” (n=2).

[6] = molecular target: T1, 5-HT2A receptor; experiment: 5-HT2A receptor downstream G protein (Gq) signaling, G protein trimer dissociation in HEK-293T cells; assay type: cell-based; parameters: expressed in transfected cells; host or cells: HEK-293T (ATCC, CRL-11268); conditions: percentage printed in parentheses beside the nM value, not defined
Experimental: as §1

[7] = molecular target: T2, dopamine D2 receptor (Homo sapiens, UniProt P14416); experiment: radioligand competitive binding assay, affinity for the dopamine D2 receptor
T2 construct: expressed in transfected cells; host or cells: HEK-293T (ATCC, CRL-11268)
T2 sequence (P14416 whole entry, species assumed): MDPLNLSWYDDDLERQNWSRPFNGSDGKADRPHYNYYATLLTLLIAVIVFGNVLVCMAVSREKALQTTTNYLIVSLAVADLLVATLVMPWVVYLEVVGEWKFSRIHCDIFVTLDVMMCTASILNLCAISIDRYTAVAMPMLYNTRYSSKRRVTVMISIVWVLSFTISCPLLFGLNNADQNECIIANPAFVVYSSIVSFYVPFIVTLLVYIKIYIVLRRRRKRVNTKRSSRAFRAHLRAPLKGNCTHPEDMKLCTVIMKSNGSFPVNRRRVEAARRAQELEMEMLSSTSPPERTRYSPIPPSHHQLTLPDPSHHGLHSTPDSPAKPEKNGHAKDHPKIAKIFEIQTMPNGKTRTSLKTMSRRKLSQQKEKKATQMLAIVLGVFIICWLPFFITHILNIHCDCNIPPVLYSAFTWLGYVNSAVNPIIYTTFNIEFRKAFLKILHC
Experimental: Method: The affinity of the compounds of the present disclosure for the dopamine D2 receptor was determined using a radioligand competitive binding assay as follows. In the first step, a cell membrane component containing dopamine D2 receptor was prepared. […] 48 hours post-transfection, the 10 cm culture dish was taken out from the cell incubator and the cultured cells had expressed the dopamine D2 receptor. The culture medium was aspirated using a vacuum pump, and 3 mL of lysis buffer was added to each culture dish. The cells were then placed in a cold room at 4° C. for 10 minutes. After the cells were detached, they were transferred to a 15 mL centrifuge tube and centrifuged at 1500 rpm for 5 minutes at 4° C., and the supernatant was discarded. The cell pellet was transferred to a tissue homogenizer, and 3 mL of lysis buffer was added. Sufficient grinding was applied to break the cells. The cell suspension was then equally aliquoted into several Eppendorf tubes and centrifuged at 12000 rpm for 5 minutes at 4° C., and the supernatant was discarded. The resulting precipitate was the cell membrane component containing the dopamine D2 receptor. […] The machine readout value reflected the amount of [3H]-Methylspiperone bound on the membrane, and after further data processing, the affinity Ki values of different compounds for the dopamine D2 receptor were obtained.

[8] = tested on: C57BL/6J wild-type mice, acute restraint stress; experiment: forced swim test (FST) after acute restraint stress; assay type: in vivo; conditions: 5 h acute restraint stress, intraperitoneal injection, test after 30 minutes
Experimental: (§2) Method: Acute restraint stress (ARS) is frequently used to induce a depressive state in mice. The forced swim test (FST) and tail suspension test (TST) are currently the most commonly used models for inferring “depression-like” behaviors. C57BL/6J wild-type mice (over 8 weeks old, purchased from Shanghai Lingchang Biotech Co., Ltd.) were restrained individually in a rodent restraint device for 5 hours. The mice were restricted from all body movements, but only minimal pain was introduced. During the ARS experiment, the mice were deprived of both food and water. After 5 hours of restraint, a separate group of mice was released and immediately injected intraperitoneally with the test compound. After 30 minutes of recovery, the behavioral changes of the mice were assessed through the Forced Swim Test (FST) or Tail Suspension Test (TST). […] All mice were forced to swim for 6 minutes, and their behavior was recorded using a video camera. The immobility time during the last 4 minutes of the test was recorded. […] In the TST, mice in the control group and those subjected to restraint stress were suspended by their tails with tape for 6 minutes, and their behavior was recorded using a video camera. The immobility time during the last 4 minutes was manually timed and assessed by an observer who was unaware of the treatment conditions.

[9] = tested on: C57BL/6J wild-type mice, acute restraint stress; experiment: tail suspension test (TST) after acute restraint stress; assay type: in vivo; conditions: 5 h acute restraint stress, intraperitoneal injection, test after 30 minutes
Experimental: as §2

[10] = 10 mg/kg IP, male C57 mice
Experimental: as §3, §4, §5, §6

[11] = depressive episodes associated with bipolar I or II disorder; Calabrese et al. 2021; cited from earlier work
[12] = Ki, affinity for the 5-HT2A receptor
[13] = read-out: Ki, affinity for the 5-HT2A receptor

COc1ccccc1CCN1CCC2C(C1)c1cccc3c1N2CCCN3C (single isomer, unassigned) [I-13]
β-arrestin2 signaling agonistic activity (% in parentheses) [1]: (51.4%)
signaling pathway selectivity at the 5-HT2A receptor (β-arrestin2 versus G protein) [1]: selectively activate the recruitment of β-arrestin2 mediated by the 5-HT2A receptor, without activating the G protein signaling pathway

COc1ccccc1CCCN1CCC2C(C1)c1cccc3c1N2CCCN3C (single isomer, unassigned) [I-14]
Ki [2, 12]: 28 nM

COc1ccccc1CCCN1CCC2C(C1)c1cccc3c1N2CCCN3C (single isomer, unassigned) [I-15]
Ki [2, 12]: 7 nM
β-arrestin2 signaling agonistic activity (% in parentheses) [1]: (24.3%)
signaling pathway selectivity at the 5-HT2A receptor (β-arrestin2 versus G protein) [1]: selectively activate the recruitment of β-arrestin2 mediated by the 5-HT2A receptor, without activating the G protein signaling pathway

COc1ccccc1CCCN1CCC2C(C1)c1cccc3c1N2CCC3 (single isomer, unassigned) [I-18]
Ki [2, 12]: 57 nM

COc1ccccc1CCCN1CCC2C(C1)c1cccc3c1N2CCC3 (single isomer, unassigned) [I-19]
β-arrestin2 signaling agonistic activity (% in parentheses) [1]: (59.4%)
signaling pathway selectivity at the 5-HT2A receptor (β-arrestin2 versus G protein) [1]: selectively activate the recruitment of β-arrestin2 mediated by the 5-HT2A receptor, without activating the G protein signaling pathway

COc1ccccc1CCCN1CCC2C(C1)c1cccc3c1N2CCO3 (single isomer, unassigned) [I-23]
antidepressant effect in the mouse tail suspension test ([3]; 10 mg/kg single injection, after 7 days): remained significant
antidepressant effect in the mouse tail suspension test ([3]; 10 mg/kg single injection, after 14 days): remained significant
antidepressant effect in the mouse tail suspension test ([3]; one day after a single administration): significant antidepressant effect
hallucinogenic effects (head-twitch response) [4]: did not induce hallucinogenic effects
β-arrestin2 signaling agonistic activity (% in parentheses) [1]: (51.6%)
AUC0-inf [5]: 540 ng·h/mL

CN1CCN2c3c(cccc31)[C@@H]1CN(Cc3ccccc3O)CC[C@@H]12 [I-2, 2-(((6bR,10aS)-3-methyl-2,3,6b,9,10,10a-hexahydro-1H-pyrido[3′,4′:4,5]pyrrolo[1,2,3-de]quinoxalin-8 (7H)-yl)methyl)phenol]
Ki [2, 13]: 525 nM
β-arrestin2 signaling agonistic activity (% in parentheses) [1]: (68.4%)
Gq signaling agonistic activity (% in parentheses) [6]: (65.3%)

COc1ccccc1CCN1CC[C@H]2[C@@H](C1)c1cccc3c1N2CCN3C [I-3]
hallucinogenic effects (head-twitch response) [4]: did not induce hallucinogenic effects
affinity for the dopamine receptor, in words [7]: weak affinity
Ki [2, 13]: 17 nM
antidepressant effect in the FST (immobility time) [8]: significant antidepressant effect
β-arrestin2 signaling agonistic activity (% in parentheses) [1]: (39.0%)
Gq signaling agonistic activity (% in parentheses) [6]: (20.2%)
antidepressant effect in the TST (immobility time) [9]: significant antidepressant effect

COc1cccc(CCN2CC[C@H]3[C@@H](C2)c2cccc4c2N3CCN4C)c1 [I-4]
Ki [2, 13]: 88 nM
β-arrestin2 signaling agonistic activity (% in parentheses) [1]: (44.2%)
Gq signaling agonistic activity (% in parentheses) [6]: (13.7%)

COc1ccc(CCN2CC[C@H]3[C@@H](C2)c2cccc4c2N3CCN4C)cc1 [I-5]
Ki [2, 13]: 126 nM
β-arrestin2 signaling agonistic activity (% in parentheses) [1]: (3.2%)

COc1cccc(CCN2CC[C@H]3[C@@H](C2)c2cccc4c2N3CCN4C)c1OC [I-6]
Ki [2, 13]: 5240 nM

CN1CCN2c3c(cccc31)[C@@H]1CN(CCc3ccccc3O)CC[C@@H]12 [I-9, 2-(2-((6bR,10aS)-3-methyl-2,3,6b,9,10,10a-hexahydro-1H-pyrido[3′,4′:4,5]pyrrolo[1,2,3-de]quinoxalin-8 (7H)-yl)ethyl)phenol]
β-arrestin2 signaling agonistic activity (% in parentheses) [1]: (14.4%)

COc1ccccc1CCCN1CC[C@H]2[C@@H](C1)c1cccc3c1N2CCN3C [I-10]
hallucinogenic effects (head-twitch response) [4]: did not induce hallucinogenic effects
affinity for the dopamine receptor, in words [7]: weak affinity
Ki [2, 13]: 13 nM
antidepressant effect in the FST (immobility time) [8]: significant antidepressant effect
β-arrestin2 signaling agonistic activity (% in parentheses) [1]: (12.7%)
AUC0-inf ([10]; brain): 1346 h · ng · mL^−1 or ng · g^−1
AUC0-t ([10]; brain): 1335 h · ng · mL^−1 or ng · g^−1
AUMC0-inf ([10]; brain): 2054 h · h · ng · mL^−1 or ng · g^−
AUMC0-t ([10]; brain): 1979 h · h · ng · mL^−1 or ng · g^−
Cmax ([10]; brain): 566 ng/g
MRT ([10]; brain): 91.8 min
T1/2 ([10]; brain): 48.1 min
tmax ([10]; brain): 30 min
AUC0-inf ([10]; plasma): 582 ng·h/mL
AUC0-t ([10]; plasma): 576 ng·h/mL
Cmax ([10]; plasma): 225 ng/mL
MRT ([10]; plasma): 127 min
T1/2 ([10]; plasma): 63.6 min
tmax ([10]; plasma): 4.98 min
antidepressant effect in the TST (immobility time) [9]: significant antidepressant effect

CN1CCN2c3c(cccc31)[C@@H]1CN(CCCc3ccccc3O)CC[C@@H]12 [I-11, 2-(3-((6bR,10aS)-3-methyl-2,3,6b,9,10,10a-hexahydro-1H-pyrido[3′,4′:4,5]pyrrolo[1,2,3-de]quinoxalin-8 (7H)-yl)propyl)phenol]
β-arrestin2 signaling agonistic activity (% in parentheses) [1]: (36.8%)
Gq signaling agonistic activity (% in parentheses) [6]: (9.7%)

COc1ccccc1CCCN1CC[C@@H]2[C@H](C1)c1cccc3c1N2CCCS3 [I-27]
β-arrestin2 signaling agonistic activity (% in parentheses) [1]: (35.7%)
signaling pathway selectivity at the 5-HT2A receptor (β-arrestin2 versus G protein) [1]: selectively activate the recruitment of β-arrestin2 mediated by the 5-HT2A receptor, without activating the G protein signaling pathway

CN1CCN2c3c(cccc31)[C@@H]1CN(CCCC(=O)c3ccc(F)cc3)CC[C@@H]12 [lumateperone]
patient response rate [11]: 51.1%
